Experiment [1] relates to breast cancer cell line MX-1. Description: MX-1 cell line proliferation assay (3-day, Cell Titer Glo). The format is cell-based. Conditions: Homo sapiens, MX1, MX-1 cells, 72 hours, read-out: Cellular proliferation: EC50. The procedure: The impact of compounds of the Examples on cancer cell proliferation was determined using the breast cancer cell line MX-1 (ATCC) in a 3-day proliferation assay and the data are reported in Table 1. […] For compound testing, MX-1 cells were plated in 96-well black bottom plates at a density of 5000 cells/well in 90 μL of culture media and incubated at 37° overnight to allow cell adhesion and spreading. Compound dilution series were prepared in DMSO via a 3-fold serial dilution from 3 mM to 0.1 μM. The DMSO dilution series were then diluted 1:100 in phosphate buffered saline, and 10 μL of the resulted solution were added to the appropriate wells of the MX-1 cell plate. The final compound concentrations in the wells were 3, 1, 0.3, 0.1, 0.03, 0.01, 0.003, 0.001, 0.0003, and 0.0001 μM, or 1, 0.3, 0.1, 0.03, 0.01, 0.003, 0.001, 0.0003, 0.0001, and 0.00003 μM.
Luminescence readings from the Cell Titer Glo assay were normalized to the DMSO treated cells and analyzed using the GraphPad Prism software with sigmoidal curve fitting to obtain EC50s.
Background: In ATP-based viability assays light output follows the ATP content of the culture.

A further experiment addresses BRD4 (BDI-BDII_K57-K550) (Homo sapiens, UniProt O60885). Description: TR-FRET bromodomain binding assay. Conditions: His-tagged tandem bromodomain, Alexa647-labeled probe; Ki calculated from IC50s, probe Kd and probe concentration. As to the method:
A time-resolved fluorescence resonance energy transfer (TR-FRET) assay was used to determine the affinities of compounds of the Examples listed in Table 1 for the tandem domain of bromodomain BRD4. […] An Alexa647-labeled BET-inhibitor was used as the fluorescent probe in the assay.
TR-FRET data were normalized to the means of 24 no-compound controls (“high”) and 8 controls containing 1 μM un-labeled probe (“low”). Percent inhibition was plotted as a function of compound concentration and the data were fit with the 4 parameter logistic equation to obtain IC50s. Inhibition constants (Ki) were calculated from the IC50s, probe Kd and probe concentration. Typical Z′ values were between 0.65 and 0.75.

As a reminder, the Ki is a dissociation constant, usually derived from enzyme kinetics or from competition with a known ligand. As for `Cn1cc2c(cc1=O)OCCCCc1cc(F)cc(F)c1Oc1ccc(S(=O)(=O)C3CC3)cc1-2` [Example A-21, 17-(cyclopropylsulfonyl)-11,13-difluoro-2-methyl-6,7,8,9-tetrahydrodibenzo[4,5:7,8][1,6]dioxacyclododecino[3,2-c]pyridin-3(2H)-one], the EC50 in experiment [1] was 5.71 nM. The Ki at BRD4 (BDI-BDII_K57-K550) was 0.88 nM. The corresponding values for `Cn1cc2c(cc1=O)OCCCc1cc(Cl)ccc1Oc1ccc(N)cc1-2` [Example A-7, 16-amino-10-chloro-2-methyl-7,8-dihydro-2H-dibenzo[4,5:7,8][1,6]dioxacycloundecino[3,2-c]pyridin-3(6H)-one] are 109 nM and 25.7 nM. The corresponding values for `CCS(=O)(=O)Nc1ccc2c(c1)-c1cn(C)c(=O)cc1OCCNC(=O)c1cc(Cl)ccc1O2` [Example B-4, N-(11-chloro-2-methyl-3,9-dioxo-2,3,6,7,8,9-hexahydrodibenzo[f,i]pyrido[3,4-k][1,8,4]dioxazacyclododecin-17-yl)ethanesulfonamide] are 257 nM and 10.5 nM. The corresponding values for `CCS(=O)(=O)c1ccc2c(c1)-c1nn(C)c(=O)cc1OCCCCc1ccncc1O2` [Example A-59, 17-(ethylsulfonyl)-2-methyl-6,7,8,9-tetrahydrobenzo[4,5]pyrido[3′,4′:7,8][1,6]dioxacyclododecino[3,2-c]pyridazin-3(2H)-one] are 111 nM and 24.2 nM.

`CCS(=O)(=O)Nc1ccc2c(c1)-c1cn(C)c(=O)cc1OCCCCc1cc(C(F)(F)F)ccc1O2` [Example A-29, N-[2-methyl-3-oxo-11-(trifluoromethyl)-2,3,6,7,8,9-hexahydrodibenzo[4,5:7,8][1,6]dioxacyclododecino[3,2-c]pyridin-17-yl]ethanesulfonamide]: the EC50 in experiment [1] was found to be 3.97 nM. The inhibition constant Ki at BRD4 (BDI-BDII_K57-K550) was 0.74 nM. The corresponding values for `CCS(=O)(=O)c1ccc2c(c1)-c1nn(C)c(=O)cc1OCCCCc1cc(C#N)ccc1O2` [Example A-54, 17-(ethylsulfonyl)-2-methyl-3-oxo-2,3,6,7,8,9-hexahydrodibenzo[4,5:7,8][1,6]dioxacyclododecino[3,2-c]pyridazine-11-carbonitrile] are 162 nM and 19.7 nM. For `Cn1cc2c(cc1=O)OCCOCc1cc(Cl)ccc1Oc1ccc(CS(C)(=O)=O)cc1-2` [Example B-17, 11-chloro-2-methyl-17-((methylsulfonyl)methyl)-6,7-dihydro-2H-dibenzo[6,7:9,10][1,4,8]trioxacyclododecino[11,12-c]pyridin-3(9H)-one] the same measures were 30.9 nM and 7.7 nM. For `CCS(=O)(=O)c1ccc2c(c1)-c1nn(C)c(=O)cc1OCCCCc1cc(Cl)ccc1O2` [Example A-53, 11-chloro-17-(ethylsulfonyl)-2-methyl-6,7,8,9-tetrahydrodibenzo[4,5:7,8][1,6]dioxacyclododecino[3,2-c]pyridazin-3(2H)-one] the same measures were 47.5 nM and 6.32 nM. For the molecule `Cn1cc2c(cc1=O)OCCCCc1cc(Cl)ccc1Oc1ncc(C(=O)O)cc1-2` [Example A-38, 11-chloro-2-methyl-3-oxo-2,3,6,7,8,9-hexahydrobenzo[11,12][1,6]dioxacyclododecino[2,3-b:4,5-c′]dipyridine-17-carboxylic acid], the EC50 in experiment [1] was > 1000 nM. Also, the Ki at BRD4 (BDI-BDII_K57-K550) was 14.7 nM. `CCS(=O)(=O)Nc1ccc2c(c1)-c1cn(C)c(=O)cc1OCCN(C(=O)OC(C)(C)C)Cc1cc(Cl)ccc1O2` [Example B-10, tert-butyl 11-chloro-17-[(ethylsulfonyl)amino]-2-methyl-3-oxo-2,3,6,7-tetrahydrodibenzo[f,i]pyrido[3,4-k][1,8,4]dioxazacyclododecine-8(9H)-carboxylate]: the EC50 in experiment [1] was 29.7 nM. Moreover, the Ki on BRD4 (BDI-BDII_K57-K550) is 1.24 nM. For `CCS(=O)(=O)Nc1ccc2c(c1)-c1cn(C)c(=O)cc1OCCCCc1cc(C#N)ccc1O2` [Example A-45, N-(11-cyano-2-methyl-3-oxo-2,3,6,7,8,9-hexahydrodibenzo[4,5:7,8][1,6]dioxacyclododecino[3,2-c]pyridin-17-yl)ethanesulfonamide] the same measures were 3.82 nM and 1.84 nM. For `CCOC(=O)N1CCOc2cc(=O)n(C)cc2-c2cc(NS(=O)(=O)CC)ccc2Oc2ccc(Cl)cc2C1` [Example B-8, ethyl 11-chloro-17-[(ethylsulfonyl)amino]-2-methyl-3-oxo-2,3,6,7-tetrahydrodibenzo[f,i]pyrido[3,4-k][1,8,4]dioxazacyclododecine-8(9H)-carboxylate] the same measures were 17 nM and 0.97 nM. For `Cn1cc2c(cc1=O)OCCCCc1cc(F)ccc1Oc1ccc(NS(C)(=O)=O)cc1-2` [Example A-50, N-(11-fluoro-2-methyl-3-oxo-2,3,6,7,8,9-hexahydrodibenzo[4,5:7,8][1,6]dioxacyclododecino[3,2-c]pyridin-17-yl)methanesulfonamide] the same measures were 3.72 nM and 2.24 nM. `Cn1cc2c(cc1=O)OCCCCc1cc(OC(F)(F)F)ccc1Oc1ccc(NS(C)(=O)=O)cc1-2` [Example A-30, N-[2-methyl-3-oxo-11-(trifluoromethoxy)-2,3,6,7,8,9-hexahydrodibenzo[4,5:7,8][1,6]dioxacyclododecino[3,2-c]pyridin-17-yl]methanesulfonamide]: the EC50 in experiment [1] came to 8.77 nM. Besides, the Ki at BRD4 (BDI-BDII_K57-K550) is 1.15 nM.

As for `CCS(=O)(=O)c1ccc2c(c1)-c1cn(C)c(=O)cc1OCCCCc1ccccc1O2` [Example A-4, 17-(ethylsulfonyl)-2-methyl-6,7,8,9-tetrahydrodibenzo[4,5:7,8][1,6]dioxacyclododecino[3,2-c]pyridin-3(2H)-one], the EC50 in experiment [1] was 10.4 nM. In addition, at BRD4 (BDI-BDII_K57-K550), the Ki was 3.07 nM. Regarding `CCS(=O)(=O)Nc1ccc2c(c1)-c1cn(C)c(=O)cc1OCCCCCc1cc(Cl)ccc1O2` [Example A-19, N-(12-chloro-2-methyl-3-oxo-3,6,7,8,9,10-hexahydro-2H-dibenzo[4,5:7,8][1,6]dioxacyclotridecino[3,2-c]pyridin-18-yl)ethanesulfonamide], in experiment [1], the EC50 was 16.2 nM. Moreover, at BRD4 (BDI-BDII_K57-K550), the Ki was 2.45 nM. Take `CCS(=O)(=O)Nc1ccc2c(c1)-c1cn(C)c(=O)cc1OCCCCc1cc(F)ccc1O2` [Example A-49, N-(11-fluoro-2-methyl-3-oxo-2,3,6,7,8,9-hexahydrodibenzo[4,5:7,8][1,6]dioxacyclododecino[3,2-c]pyridin-17-yl)ethanesulfonamide]: the EC50 in experiment [1] was determined as 3.64 nM. The Ki on BRD4 (BDI-BDII_K57-K550) is 1.57 nM. The corresponding values for `CCS(=O)(=O)Nc1ccc2c(c1)-c1cn(C)c(=O)cc1OC(C)CCCc1cc(Cl)ccc1O2` (centres unmarked) [Example A-17, N-(11-chloro-2,6-dimethyl-3-oxo-2,3,6,7,8,9-hexahydrodibenzo[4,5:7,8][1,6]dioxacyclododecino[3,2-c]pyridin-17-yl)ethanesulfonamide] are 7.82 nM and 2.25 nM. For `CCS(=O)(=O)c1ccc2c(c1)-c1cn(C)c(=O)cc1OCC/C=C/c1ccc(Cl)cc1O2` [Example A-24, (E)-12-chloro-17-(ethylsulfonyl)-2-methyl-6,7-dihydrodibenzo[4,5:7,8][1,6]dioxacyclododecino[3,2-c]pyridin-3(2H)-one] the same measures were 16.4 nM and 3.34 nM. As for `Cn1cc2c(cc1=O)OCCCCc1cc(Cl)ccc1Oc1ncc(N)cc1-2` [Example A-32, 17-amino-11-chloro-2-methyl-6,7,8,9-tetrahydrobenzo[11,12][1,6]dioxacyclododecino[2,3-b:4,5-c′]dipyridin-3(2H)-one], the Ki at BRD4 (BDI-BDII_K57-K550) was 88.7 nM. With `CCS(=O)(=O)Nc1ccc2c(c1)-c1nn(C)c(=O)cc1OCCCCc1cc(Cl)ccc1O2` [Example A-55, N-(11-chloro-2-methyl-3-oxo-2,3,6,7,8,9-hexahydrodibenzo[4,5:7,8][1,6]dioxacyclododecino[3,2-c]pyridazin-17-yl)ethanesulfonamide], in experiment [1], the EC50 is 14.2 nM. The Ki on BRD4 (BDI-BDII_K57-K550) is 2.91 nM. The corresponding values for `CCS(=O)(=O)c1ccc2c(c1)-c1cn(C)c(=O)cc1OCCCCc1cccc(C)c1O2` [Example A-60, 17-(ethylsulfonyl)-2,13-dimethyl-6,7,8,9-tetrahydrodibenzo[4,5:7,8][1,6]dioxacyclododecino[3,2-c]pyridin-3(2H)-one] are 1.16 nM and 5.8 nM. Turning to `Cn1cc2c(cc1=O)OCCCCc1cc(Cl)ccc1Oc1ccc(N)cc1-2` [Example A-8, 17-amino-11-chloro-2-methyl-6,7,8,9-tetrahydrodibenzo[4,5:7,8][1,6]dioxacyclododecino[3,2-c]pyridin-3(2H)-one], the Ki on BRD4 (BDI-BDII_K57-K550) was 25.2 nM.
